We go through 3 compounds from US6339069B1, “Peptide-lipid conjugates, liposomes and lipsomal drug delivery” (Elan PharmaceuticalsTechnologies, Inc., priority 1996, dated 2002).

One series concerns the target T1, Human leukocyte elastase (Homo sapiens, UniProt P08246).
T1 construct: purchased Calbiochem (San Diego, Calif.)
T1 sequence (P08246 30-247 limits assumed): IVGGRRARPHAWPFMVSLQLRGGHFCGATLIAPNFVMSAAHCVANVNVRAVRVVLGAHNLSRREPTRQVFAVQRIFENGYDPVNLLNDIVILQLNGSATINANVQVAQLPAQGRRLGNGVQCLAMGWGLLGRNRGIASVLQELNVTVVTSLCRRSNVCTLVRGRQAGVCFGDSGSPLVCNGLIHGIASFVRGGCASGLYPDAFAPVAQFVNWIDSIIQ
Put plainly: Elastase-mediated cleavage of N-Ac-AA-DOPE to DOPE (TLC, HPLC). Format: biochemical. The following applies: overnight, 37° C. The method, then:
Cleavage of N-Ac-ala-ala-DOPE to DOPE by elastase was monitored by thin layer chromatography (TLC). The chemical structure of N-Ac-ala-ala-DOPE and its postulated scheme of conversion to DOPE by enzymatic cleavage is shown in FIG. 1. 100-200 nmol of N-Ac-AA-DOPE SUVs were incubated with 1 mg enzyme in 0.1 ml overnight at 37° C. Human leukocyte elastase was purchased from Calbiochem (San Diego, Calif.). Lipid was extracted by organic phase separation (Bligh and Dyer, 1959) twice. Collected lipid was dried under N^2 stream and exposed to vacuum for 4 hours-overnight. Samples were resuspended in chloroform and spotted onto TLC plates. […]
Elastase and proteinase K mediated cleavage of N-Ac-AA-DOPE was quantitated using liposomes composed of N-Ac-AA-DOPE and DOTAP, a positively charged lipid. […] After treatment with elastase or proteinase K the reduction in the amount of N-Ac-AA-DOPE was monitored by HPLC (FIG. 4). […]
Collected lipid was dried under a N2 stream and exposed to vacuum for 4 hours-overnight. […] The N-Ac-AA-DOPE peak was detected using a gradient of 59-55% isopropanol:4-8% water. Flow rate was 1.5 ml/min, column temperature was set at 45° C., and peaks were detected by a UV detector set at 205 nm. Lipid peaks were quantitated in comparison to standard curves generated by injecting 5-200 nmol of DOTAP or N-Ac-AA-DOPE and monitoring 205 nm signal. […]

Series [1] relates to S. caespitosus protease, peptidase, chymotrypsin, trypsin, protease type I. Put plainly: Cleavage of N-Ac-ala-ala-DOPE by other proteases (HPLC). The class given is biochemical. The following applies: DOTAP/N-acetyl-ala-ala-PE 1:1 SUVs, 100 nmole, 0.5 or 1.0 mg enzyme, overnight, 37 degrees C. The protocol:
(§1) To compare the effect of different proteolytic enzymes on the cleavage of N-acetyl-ala-ala-DOPE, small unilamellar liposomes composed of DOTAP and N-acetyl-ala-ala-PE (1:1 molar ratio, 100 nmole), prepared as described hereinabove, were incubated overnight at 37 degrees C. with either 0.5 mg (experiment 1) or 1.0 mg (experiment 2) of: S. caespitosus protease, S. priseus (“pronase”), peptidase, chymotrypsin, trypsin, protease type I, proteinase K, or with no enzyme added.
(§2) Subsequently, lipid was extracted from these preparations by organic phase separation, and dried under vacuum. The dried lipid was suspended in ethanol, and the resulting lipidic solution was then injected into a normal phase silica column. Analysis was by HPLC, as described above. Lipid peaks were quantitated, and the amount of lipid cleavage was calculated as a percentage of the starting lipid.

Another series deals with S. griseus (“pronase”). As to the kind of experiment: Cleavage of N-Ac-ala-ala-DOPE by pronase (HPLC). Format: biochemical. The following applies: DOTAP/N-acetyl-ala-ala-PE 1:1 SUVs, 100 nmole, 0.5 or 1.0 mg enzyme, overnight, 37 degrees C. The method, then:
as §1, §2

The target in another series is proteinase K (Parengyodontium album, UniProt P06873). As to the kind of experiment: Proteinase K-mediated cleavage of N-Ac-AA-DOPE (TLC, 31P-NMR, HPLC). Format: biochemical. The protocol: Several proteases were tested to determine whether an enzyme with similar substrate specificity could be used as a model for elastase mediated cleavage of N-Ac-AA-DOPE. Proteinase K is a serine protease that, similarly to elastase, can cleave at peptide bonds C-terminal to aliphatic residues.
Sequence of proteinase K (P06873 106-384, species assumed): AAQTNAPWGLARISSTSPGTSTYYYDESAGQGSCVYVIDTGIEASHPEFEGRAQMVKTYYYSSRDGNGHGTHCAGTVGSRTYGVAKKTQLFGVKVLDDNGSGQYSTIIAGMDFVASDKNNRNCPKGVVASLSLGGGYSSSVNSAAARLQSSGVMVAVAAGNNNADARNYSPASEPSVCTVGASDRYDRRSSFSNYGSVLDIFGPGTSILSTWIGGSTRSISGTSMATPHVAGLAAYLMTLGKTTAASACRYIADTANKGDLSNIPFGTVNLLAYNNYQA
Subsequently, proteinase K, which has a similar substrate specificity to elastase, was used to model the elastase effect because of the lower cost of the enzyme. Referring to FIG. 3, samples A and C contained pure N-acetyl-ala-ala-DOPE and pure DOPE, respectively; sample B consisted of multilamellar liposomes, prepared as described hereinbelow, composed of pure N-acetyl-ala-ala-DOPE (2 μmole total phospholipid), which were incubated in 200 μl of 154 mM NaCl, 10 mM TES, 0.1 mM EDTA at pH 7.4 and 37 ° C. for two hours in the presence of 1 mg of proteinase K. After the first incubation, another equal amount of proteinase K was added and the sample was incubated for another 2 hours. All three samples were dissolved into a final concentration of 5% deoxycholate, 50 mM EDTA and 10 mM HEPES at pH 8 for proton decoupled ^31P NMR.
The conversion of N-Ac-AA-DOPE to DOPE was also monitored by ^31P-NMR analysis. N-Ac-AA-DOPE LUVs were prepared and treated with or without proteinase K (1.5 mg protein/100 nmol lipid) overnight at 37° C. Samples were mixed with buffer (10% deoxycholate, 100 mM EDTA, 20 mM Hepes) and deuterium oxide (Cambridge Isotope Laboratories, Woburn, Mass.) (1:4:2) and transferred to 5 mm NMR tubes. Samples were monitored at room temperature in a Bruker AC300 spectrometer operating at 121.5 MHz, with […] 90° radio frequency pulse for proton decoupling and set to 2 sec interpulse delay to avoid signal saturation. Sweep width was set at 50 kHz. 1 Hz line broadening was applied to all spectra.
Elastase and proteinase K mediated cleavage of N-Ac-AA-DOPE was quantitated using liposomes composed of N-Ac-AA-DOPE and DOTAP, a positively charged lipid. DOTAP was included to provide a counterbalancing positive charge, and was used as a standard by which different samples could be normalized and compared. After treatment with elastase or proteinase K the reduction in the amount of N-Ac-AA-DOPE was monitored by HPLC (FIG. 4). Liposomes composed of DOTAP/N-Ac-AA-DOPE (1:1) were incubated with enzyme under given conditions. Lipid was extracted by the Bligh-Dyer procedure twice.
Collected lipid was dried under a N2 stream and exposed to vacuum for 4 hours-overnight. Samples were resuspended in 100% ethanol and injected in 30 ul aliquots into Spherisorb silica columns (150×4.6 mm, […], Keystone Scientific). HPLC was performed using a hexane:isopropanol:water:TFA mobile phase. Hexane and TFA were held constant at 37% and 0.2%, respectively. The N-Ac-AA-DOPE peak was detected using a gradient of 59-55% isopropanol:4-8% water. Flow rate was 1.5 ml/min, column temperature was set at 45° C., and peaks were detected by a UV detector set at 205 nm. Lipid peaks were quantitated in comparison to standard curves generated by injecting 5-200 nmol of DOTAP or N-Ac-AA-DOPE and monitoring 205 nm signal. Percent cleavage was calculated by normalizing peaks to DOTAP, then determining the decrease in N-Ac-AA-DOPE peak size relative to starting amounts.
To verify that the cleavage of N-Ac-AA-DOPE was due to proteinase K enzymatic activity, liposomes were treated with heat inactivated proteinase K. Proteinase K was inactivated by heating at 95° C. for 1 hour, after which the enzyme was incapable of cleaving the chromogenic substrate N-Ac-AAA-pNA. […] In these experiments liposomes, prepared as described hereinbelow, were composed of 100% N-Acetyl-ala-ala-DOPE and were then extruded to approximately 0.2 microns diameter. Fifty micrograms of liposomal lipid was incubated alone or with one unit of HLE overnight at 37° C. […]

The conditions of series [2]: pH 7.4; cited from earlier work.
Series [3] has as its target T2, Human leukocyte elastase (HLE) (Homo sapiens, UniProt P08246).
T2 construct: purchased Calbiochem (San Diego, Calif.)
T2 sequence (P08246 30-247 limits assumed): T1 sequence (P08246 30-247 limits assumed)
Put plainly: Cleavage of MeO-suc-ala-ala-pro-val-DOPE by HLE (TLC, 31P-NMR). The class given is biochemical. As to conditions: 2 hours. The protocol: To determine if the peptide-lipid MeO-suc-ala-ala-pro-val-DOPE (SEQ ID NO:42) is also a suitable substrate for elastase mediated cleavage 50 nmol of MeO-suc-ala-ala-pro-val-DOPE liposomes (SUVs) were incubated with 0, 2.5, 5, 10, or 20 ug HLE (from Calbiochem; 20 units/mg protein; 1 unit=amount of enzyme that will hydrolyze 1.0 umol of MeO-suc-ala-ala-pro-val-pNA per min at 25 degrees C., pH 8.0) overnight at 37 degrees C. in 50 ul volume of 10 mM TES/ 154 mM NaCl/ 0.1 mM EDTA, pH 7.4, containing 1.5 mM Ca and 1.5 mM Mg.
Lipid was extracted using the Bligh-Dyer technique (chloroform/methanol/water: 2/1.7/1), dried under nitrogen, placed under high vacuum for ˜3 hours. Samples were resuspended in 5 ul chloroform and spotted onto TLC plates. 20 ug of pure DOPE was also spotted for comparison purposes. TLC solvent system was chloroform/methanol/ammonium hydroxide (65/25/5). Plates were air dried, sprayed with molybdenate blue, then charred at 180 degrees C.
MeO-suc-ala-ala-pro-val-DOPE liposomes were incubated with 0 or 5 ug HLE for 1, 2, 4 hours, or overnight and processed as above. The peptide was cleaved by HLE in as little as 1 hour at 37 degrees C.
The conversion of MeO-suc-AAPV-DOPE to DOPE (SEQ ID NO:42) was also quantitated by ^31P-NMR. […] A small shoulder that may indicate an incomplete peptide cleavage product was also observed near the original peptide-lipid peak. Treatment with 5 micrograms of elastase/100 nmol lipid yielded 20% DOPE. Longer incubation may have lead to further digestion, though multiple lamellae and/or the surface charge of the liposome may limit the ultimate amount digested. The maximum exposed peptide-lipid for intact liposomes would occur with unilamellar vesicles. Assuming only the outer leaflet peptide-lipid in unilamellar vesicles is available for digestion, the minimal percentage conversion of exposed MeO-suc-AAPV-DOPE (SEQ ID NO:42) to DOPE in the outer leaflet lipid of this preparation was 40% (FIG. 6, dotted line). If the average number of lamellae were greater than one, the percentage conversion was even higher. […]

`CCCCCCCC/C=C\CCCCCCCC(=O)OCC(COP(=O)(O)OCCNC(=O)[C@H](C)NC(=O)[C@H](C)NC(C)=O)OC(=O)CCCCCCC/C=C\CCCCCCCC` (some centres unmarked) [N-Ac-AA-DOPE, N-acetyl-alanyl-alanyl-dioleoyl phosphatidylethanolamine]: at Human leukocyte elastase (DOTAP/N-Ac-AA-DOPE (1:1) liposomes, 1 mg protease/100 nmol lipid), the “Cleavage of N-Ac-AA-DOPE by elastase (HPLC)” value is listed as “cleaved N-Ac-AA-DOPE to a similar extent”. Besides, the “Cleavage of N-Ac-AA-DOPE to DOPE by elastase (TLC)” value at Human leukocyte elastase (N-Ac-AA-DOPE SUVs, 1 mg enzyme in 0.1 ml) is “generated a product corresponding to DOPE”. For the same compound, the “Cleavage of N-Ac-ala-ala-DOPE from liposomes by other proteases (HPLC)” value in series [1] is on record as “did not cleave”. Moreover, in the series with S. griseus (“pronase”), the “Cleavage of N-Ac-ala-ala-DOPE from liposomes by pronase (HPLC)” value is “effected cleavage”. For the same compound, the “Cleavage of N-Ac-AA-DOPE by proteinase K (HPLC)” value at proteinase K (DOTAP/N-Ac-AA-DOPE (1:1) liposomes, 1 mg protease/100 nmol lipid, overnight, 37° C.) was “cleaved N-Ac-AA-DOPE to a similar extent”. Moreover, the “Cleavage of N-Ac-AA-DOPE by heat inactivated proteinase K (HPLC)” value at proteinase K (DOTAP/N-Ac-AA-DOPE liposomes, proteinase K inactivated 95° C., 1 hour) is “did not result in any cleavage”. The “Cleavage of N-Ac-ala-ala-DOPE from liposomes by proteinase K (HPLC)” value on proteinase K (DOTAP/N-acetyl-ala-ala-PE 1:1 SUVs, 100 nmole, 0.5 or 1.0 mg enzyme, overnight, 37 degrees C.) was “effected cleavage”. Also, the “Conversion of N-Ac-AA-DOPE to DOPE (31P-NMR)” value in the series with proteinase K (LUVs, proteinase K 1.5 mg protease/100 nmol lipid, overnight, 37° C.) is “appearance of a peak 0.3 ppm upfield from N-Ac-AA-DOPE, corresponding with pure DOPE”. Also, the “Cleavage of N-Ac-AA-DOPE by proteinase K (TLC)” value at proteinase K (N-Ac-AA-DOPE liposomes, 1 mg enzyme/100 nmol lipid, overnight, 37° C.) is “the peptide-lipid was cleaved and DOPE was generated”. Further, the “N-acetyl-ala-ala-DOPE converted to pure DOPE (31P NMR integration)” value at proteinase K (multilamellar liposomes of pure conjugate, 1 mg proteinase K 2 hours + equal amount another 2 hours, pH 7.4, 37° C.) is recorded as “approximately 20%”.
As to `CCCCCCCC/C=C\CCCCCCCC(=O)OCC(CN(C)C)OC(=O)CCCCCCC/C=C\CCCCCCCC` (centres unmarked) [DODAP, 1-N,N-dimethylamino dioleoyl propane], in series [2], the “DODAP population positively charged” value was 20%.
Regarding `CCCCCCCC/C=C\CCCCCCCC(=O)OC[C@H](COP(=O)(O)OCCNC(=O)[C@@H](NC(=O)[C@@H]1CCCN1C(=O)[C@H](C)NC(=O)[C@H](C)NC(=O)CCC(=O)OC)C(C)C)OC(=O)CCCCCCC/C=C\CCCCCCCC` [MeO-suc-AAPV-DOPE, 1,2-Dioleoyl-sn-glycero-3-phosphoethanolamido-val-pro-ala-ala-sucMeO], the “DOPE yielded from MeO-suc-AAPV-DOPE (31P-NMR)” value in series [3] (DODAP/MeO-suc-AAPV-DOPE 1:1 vesicles, 5 micrograms of elastase/100 nmol lipid, 37° C.) stood at 20%. The compound further showed an Available peptide-lipid cleaved in series [3] (assuming approximately 2.5 lamellae per vesicle, 5 micrograms elastase/100 nmol lipid) of 100%. The “Minimal percentage conversion of exposed MeO-suc-AAPV-DOPE to DOPE in the outer leaflet” value in series [3] (assuming unilamellar vesicles, 5 micrograms elastase/100 nmol lipid) is not below 40%.
